From patent US9481676B2, “Azepino[4,5-B]indoles and methods of use” (Medivation Technologies, Inc., priority 2008, dated 2016)

The compounds below were run against T1, human recombinant adrenergic α2A receptor (Homo sapiens, UniProt P08913) (assay: Adrenergic alpha2A radioligand binding ([3H]MK-912)). Settings: compound at 1 μM; read-out: Adrenergic (1 μM) α2A, percent inhibition of specific binding.
T1 construct: expressed in transfected cells; host or cells: insect Sf9 cells
T1 sequence (P08913 1-465): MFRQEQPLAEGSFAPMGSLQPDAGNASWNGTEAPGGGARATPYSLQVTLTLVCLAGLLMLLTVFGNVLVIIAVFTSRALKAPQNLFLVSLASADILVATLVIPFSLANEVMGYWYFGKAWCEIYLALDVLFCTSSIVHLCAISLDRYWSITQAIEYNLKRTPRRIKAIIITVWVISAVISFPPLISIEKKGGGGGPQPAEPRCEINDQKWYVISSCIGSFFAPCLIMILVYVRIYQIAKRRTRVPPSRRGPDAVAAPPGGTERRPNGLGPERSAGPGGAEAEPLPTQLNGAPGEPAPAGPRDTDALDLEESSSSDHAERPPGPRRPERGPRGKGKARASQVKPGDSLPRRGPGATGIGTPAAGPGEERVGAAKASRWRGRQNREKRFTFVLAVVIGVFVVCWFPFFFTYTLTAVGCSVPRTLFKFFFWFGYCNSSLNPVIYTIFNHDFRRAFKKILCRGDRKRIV
Procedure, shortened: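 Membranes of Sf9 cells expressing human recombinant α2A receptor were incubated with compound and 1 nM [3H]MK-912 for 60 min at 25 °C in 50 mM Tris-HCl pH 7.4, 12.5 mM MgCl2, 2 mM EDTA. Nonspecific binding: 10 μM WB-4101.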

Row | SMILES | inhibition at 1 µM [%]
1 | CN1CCc2c(n(CCc3ccc(C(F)(F)F)nc3)c3ccc(Cl)cc23)CC1 [Compound No. 1, 9-chloro-6-(2-(6-(trifluoromethyl)pyridin-3-yl)ethyl)-1,2,3,4,5,6-hexahydro-3-methylazepino[4,5-b]indole] | 90
2 | C/C(=C\n1c2c(c3cc(Cl)ccc31)CCN(C)CC2)c1ccc(F)cc1 [Compound No. 2, 9-chloro-6-((E)-2-(4-fluorophenyl)prop-1-enyl)-1,2,3,4,5,6-hexahydro-3-methylazepino[4,5-b]indole] | 96
3 | Cc1cncc(CCn2c3c(c4cc(Cl)ccc42)CCN(C)CC3)c1 [Compound No. 3, 9-chloro-3-methyl-6-(2-(5-methylpyridin-3-yl)ethyl)-1,2,3,4,5,6-hexahydroazepino[4,5-b]indole] | 91
4 | CC1CCN(C(=O)Cn2c3c(c4cc(Cl)ccc42)CCN(C)CC3)CC1 [Compound No. 76, 2-(9-chloro-2,3,4,5-tetrahydro-3-methylazepino[4,5-b]indol-6(1H)-yl)-1-(4-methylpiperidin-1-yl)ethanone] | 7
5 | COc1ccc(C(O)Cn2c3c(c4cc(Cl)ccc42)CCN(C)CC3)cc1OC (stereo not drawn) [Compound No. 77, 2-(9-chloro-2,3,4,5-tetrahydro-3-methylazepino[4,5-b]indol-6(1H)-yl)-1-(3,4-dimethoxyphenyl)ethanol] | 85
6 | COc1ccc(/C=C/n2c3c(c4cc(Cl)ccc42)CCN(C)CC3)cc1 [Compound No. 78, 6-(4-methoxystyryl)-9-chloro-1,2,3,4,5,6-hexahydro-3-methylazepino[4,5-b]indole] | 83
7 | Cc1ccc2c(c1)c1c(n2CC(=O)Nc2ccccc2)CCN(C)CC1 [Compound No. 79, 2-(2,3,4,5-tetrahydro-3,9-dimethylazepino[4,5-b]indol-6(1H)-yl)-N-phenylacetamide] | 17
8 | C=C(Cn1c2c(c3cc(Cl)ccc31)CCN(C)CC2)c1ccc(F)cc1 [Compound No. 82, 9-chloro-6-(2-(4-fluorophenyl)allyl)-3-methyl-1,2,3,4,5,6-hexahydroazepino[4,5-b]indole] | 96
9 | CN1CCc2c(n(/C=C/c3ccccc3F)c3ccc(Cl)cc23)CC1 [Compound No. 83, (E)-9-chloro-6-(2-fluorostyryl)-3-methyl-1,2,3,4,5,6-hexahydro azepino[4,5-b]indole] | 99
10 | C/C(=C/n1c2c(c3cc(Cl)ccc31)CCN(C)CC2)c1ccc(Cl)cc1Cl [Compound No. 152, (Z)-9-chloro-6-(2-(2,4-dichlorophenyl)prop-1-enyl)-1,2,3,4,5,6-hexahydro-3-methylazepino[4,5-b]indole] | 93
11 | COc1ccc(/C=C/n2c3c(c4cc(Cl)ccc42)CCN(C)CC3)cc1F [Compound No. 158, (E)-6-(3-fluoro-4-methoxystyryl)-9-chloro-1,2,3,4,5,6-hexahydro-3-methylazepino[4,5-b]indole] | 99
12 | C/C(=C/n1c2c(c3cc(C)ccc31)CCN(C)CC2)c1ccc(Cl)cc1Cl [Compound No. 174, (Z)-6-(2-(2,4-dichlorophenyl)prop-1-enyl)-1,2,3,4,5,6-hexahydro-3,9-dimethylazepino[4,5-b]indole] | 101
13 | COc1ccc(/C=C/n2c3c(c4cc(C)ccc42)CCN(C)CC3)cc1F [Compound No. 180, (E)-6-(3-fluoro-4-methoxystyryl)-1,2,3,4,5,6-hexahydro-3,9-dimethylazepino[4,5-b]indole] | 99
14 | Cc1ccc2c(c1)c1c(n2CC(=O)N2CCNCC2)CCN(C)CC1 [Compound No. 224, 2-(3,9-dimethyl-2,3,4,5-tetrahydroazepino[4,5-b]indol-6(1H)-yl)-1-(piperazin-1-yl)ethanone] | 8
15 | Cc1ccc2c(c1)c1c(n2CC(=O)N2CCC(C)CC2)CCN(C)CC1 [Compound No. 225, 2-(3,9-dimethyl-2,3,4,5-tetrahydroazepino[4,5-b]indol-6(1H)-yl)-1-(4-methylpiperidin-1-yl)ethanone] | 0
16 | COc1ccc(/C=C/n2c3c(c4cc(Cl)ccc42)CCN(C)CC3)cc1OC [Compound No. 226, (E)-9-chloro-6-(3,4-dimethoxystyryl)-3-methyl-1,2,3,4,5,6-hexahydroazepino[4,5-b]indole] | 93
17 | COc1ccc(C(O)Cn2c3c(c4cc(C)ccc42)CCN(C)CC3)cc1OC (stereo not drawn) [Compound No. 227, 1-(3,4-dimethoxyphenyl)-2-(3,9-dimethyl-2,3,4,5-tetrahydroazepino[4,5-b]indol-6(1H)-yl)ethanol] | 70
18 | CN1CCc2c(n(/C=C/c3ccccc3)c3ccc(Cl)cc23)CC1 [Compound No. 228, (E)-9-chloro-3-methyl-6-styryl-1,2,3,4,5,6-hexahydroazepino[4,5-b]indole] | 102
